Legend:
[1] = 298.15 K; 101.33 kPa; Liquid; Vibrating tube method
[2] = refractive index (Na D-line) (dimensionless); conditions: 298.15 K; 101.33 kPa; Liquid; Standard Abbe refractometry
[3] = xn = mol fraction of the nth substance listed; conditions: 298.15 K, 101 kPa, Liquid, Vibrating tube method
[4] = excess molar enthalpy (molar enthalpy of mixing); xn = mol fraction of the nth substance listed; conditions: 298.15 K, 101 kPa, Liquid, Flow calorimetry

CCCCOCCOCCO [3,6-dioxa-1-decanol]
Conditions	mass density [kg/m3]	refractive index
[1]	948.48	–
[2]	–	1.42998

CCCCOCCOCCOCCO [triethylene glycol monobutyl ether]
Conditions	mass density [kg/m3]	refractive index
[1]	988.44	–
[2]	–	1.43973

COCCOCCOCCO [2-[2-(2-methoxyethoxy)ethoxy]ethanol]
Conditions	mass density [kg/m3]	refractive index
[1]	1043.3	–
[2]	–	1.43673

CCCCOCCOCCOCCO [triethylene glycol monobutyl ether] + CC(Cl)CCl
Conditions	excess molar enthalpy [kcal/mol]	mass density [kg/m3]
[3], x2 = 0.0919	–	996.32
[3], x2 = 0.1463	–	1001.35
[3], x2 = 0.2006	–	1006.67
[3], x2 = 0.2501	–	1011.79
[3], x2 = 0.3036	–	1017.68
[3], x2 = 0.3548	–	1023.63
[3], x2 = 0.4015	–	1029.38
[3], x2 = 0.4519	–	1035.95
[3], x2 = 0.5032	–	1043.04
[3], x2 = 0.5498	–	1049.9
[3], x2 = 0.6016	–	1058.03
[3], x2 = 0.6526	–	1066.61
[3], x2 = 0.701	–	1075.35
[3], x2 = 0.7502	–	1084.93
[3], x2 = 0.8009	–	1095.6
[3], x2 = 0.851	–	1107.21
[3], x2 = 0.9003	–	1119.7
[3], x2 = 0.9483	–	1133.01
[4], x2 = 0.079	-0.0579	–
[4], x2 = 0.117	-0.0778	–
[4], x2 = 0.154	-0.102	–
[4], x2 = 0.19	-0.121	–
[4], x2 = 0.256	-0.146	–
[4], x2 = 0.317	-0.167	–
[4], x2 = 0.346	-0.1746	–
[4], x2 = 0.401	-0.1859	–
[4], x2 = 0.452	-0.1912	–
[4], x2 = 0.5	-0.1913	–
[4], x2 = 0.545	-0.188	–
[4], x2 = 0.606	-0.1763	–
[4], x2 = 0.645	-0.1648	–
[4], x2 = 0.698	-0.145	–
[4], x2 = 0.746	-0.123	–
[4], x2 = 0.805	-0.0932	–
[4], x2 = 0.859	-0.0635	–
[4], x2 = 0.907	-0.0371	–
[4], x2 = 0.951	-0.0164	–

CCCOCCOCCO [2-(2-propoxyethoxy)ethanol]
Conditions	mass density [kg/m3]	refractive index
[1]	962.74	–
[2]	–	1.42727

COCCOCCOCCO [2-[2-(2-methoxyethoxy)ethoxy]ethanol] + CC(Cl)CCl
Conditions	excess molar enthalpy [kcal/mol]	mass density [kg/m3]
[3], x2 = 0.0554	–	1047.4
[3], x2 = 0.1	–	1050.82
[3], x2 = 0.1507	–	1054.88
[3], x2 = 0.1999	–	1058.91
[3], x2 = 0.2535	–	1063.43
[3], x2 = 0.2977	–	1067.32
[3], x2 = 0.3483	–	1071.88
[3], x2 = 0.401	–	1076.8
[3], x2 = 0.4512	–	1081.66
[3], x2 = 0.5013	–	1086.65
[3], x2 = 0.5522	–	1091.89
[3], x2 = 0.6013	–	1097.16
[3], x2 = 0.648	–	1102.3
[3], x2 = 0.7005	–	1108.34
[3], x2 = 0.7514	–	1114.4
[3], x2 = 0.7997	–	1120.38
[3], x2 = 0.8567	–	1127.98
[3], x2 = 0.8993	–	1133.84
[3], x2 = 0.9502	–	1141.27
[4], x2 = 0.061	-0.0429	–
[4], x2 = 0.091	-0.0565	–
[4], x2 = 0.15	-0.0912	–
[4], x2 = 0.206	-0.119	–
[4], x2 = 0.26	-0.14	–
[4], x2 = 0.311	-0.1575	–
[4], x2 = 0.36	-0.1693	–
[4], x2 = 0.407	-0.1774	–
[4], x2 = 0.452	-0.1811	–
[4], x2 = 0.496	-0.1814	–
[4], x2 = 0.558	-0.1759	–
[4], x2 = 0.597	-0.1682	–
[4], x2 = 0.654	-0.1526	–
[4], x2 = 0.707	-0.133	–
[4], x2 = 0.757	-0.111	–
[4], x2 = 0.805	-0.0875	–
[4], x2 = 0.851	-0.0629	–
[4], x2 = 0.908	-0.0328	–
[4], x2 = 0.949	-0.0144	–

CC(Cl)CCl (stereo unspecified) [1,2-dichloropropane]
Conditions	mass density [kg/m3]	refractive index
[1]	1149.03	–
[2]	–	1.43656

CCOCCOCCOCCO [2-(2-(2-ethoxyethoxy)ethoxy)ethanol] + CC(Cl)CCl
Conditions	excess molar enthalpy [kcal/mol]	mass density [kg/m3]
[3], x2 = 0.0522	–	1020.53
[3], x2 = 0.1019	–	1024.84
[3], x2 = 0.1497	–	1029.19
[3], x2 = 0.2027	–	1034.17
[3], x2 = 0.2538	–	1039.19
[3], x2 = 0.3014	–	1044.06
[3], x2 = 0.3475	–	1048.98
[3], x2 = 0.4037	–	1055.22
[3], x2 = 0.4507	–	1060.69
[3], x2 = 0.5006	–	1066.74
[3], x2 = 0.553	–	1073.37
[3], x2 = 0.6023	–	1079.92
[3], x2 = 0.6499	–	1086.58
[3], x2 = 0.7036	–	1094.48
[3], x2 = 0.7524	–	1102.1
[3], x2 = 0.8009	–	1110.06
[3], x2 = 0.8494	–	1118.49
[3], x2 = 0.8988	–	1127.79
[3], x2 = 0.9495	–	1138.04
[4], x2 = 0.067	-0.0506	–
[4], x2 = 0.101	-0.0657	–
[4], x2 = 0.164	-0.104	–
[4], x2 = 0.195	-0.121	–
[4], x2 = 0.253	-0.145	–
[4], x2 = 0.308	-0.1638	–
[4], x2 = 0.36	-0.1773	–
[4], x2 = 0.41	-0.1859	–
[4], x2 = 0.457	-0.1887	–
[4], x2 = 0.501	-0.1888	–
[4], x2 = 0.544	-0.1854	–
[4], x2 = 0.604	-0.174	–
[4], x2 = 0.66	-0.1571	–
[4], x2 = 0.695	-0.144	–
[4], x2 = 0.745	-0.122	–
[4], x2 = 0.807	-0.0893	–
[4], x2 = 0.85	-0.0656	–
[4], x2 = 0.904	-0.036	–
[4], x2 = 0.954	-0.0131	–

CCOCCOCCOCCO [2-(2-(2-ethoxyethoxy)ethoxy)ethanol]
Conditions	mass density [kg/m3]	refractive index
[1]	1016.19	–
[2]	–	1.43623

CCCOCCOCCO [2-(2-propoxyethoxy)ethanol] + CC(Cl)CCl
Conditions	excess molar enthalpy [kcal/mol]	mass density [kg/m3]
[3], x2 = 0.054	–	969.58
[3], x2 = 0.105	–	976.29
[3], x2 = 0.1473	–	982.03
[3], x2 = 0.203	–	989.81
[3], x2 = 0.2494	–	996.53
[3], x2 = 0.3	–	1004.1
[3], x2 = 0.3488	–	1011.66
[3], x2 = 0.4014	–	1020.11
[3], x2 = 0.4516	–	1028.46
[3], x2 = 0.5005	–	1036.91
[3], x2 = 0.5504	–	1045.89
[3], x2 = 0.5995	–	1055.07
[3], x2 = 0.6509	–	1065.09
[3], x2 = 0.7009	–	1075.28
[3], x2 = 0.752	–	1086.18
[3], x2 = 0.8015	–	1097.29
[3], x2 = 0.851	–	1109.05
[3], x2 = 0.9018	–	1121.84
[3], x2 = 0.9476	–	1134.08
[4], x2 = 0.06	-0.0351	–
[4], x2 = 0.119	-0.0599	–
[4], x2 = 0.147	-0.0709	–
[4], x2 = 0.202	-0.0895	–
[4], x2 = 0.255	-0.103	–
[4], x2 = 0.306	-0.1117	–
[4], x2 = 0.355	-0.116	–
[4], x2 = 0.402	-0.1173	–
[4], x2 = 0.447	-0.1153	–
[4], x2 = 0.511	-0.107	–
[4], x2 = 0.552	-0.0989	–
[4], x2 = 0.592	-0.0897	–
[4], x2 = 0.648	-0.0737	–
[4], x2 = 0.702	-0.0561	–
[4], x2 = 0.753	-0.0387	–
[4], x2 = 0.802	-0.0225	–
[4], x2 = 0.848	-0.00722	–
[4], x2 = 0.907	0.00621	–
[4], x2 = 0.948	0.00903	–

CCCCOCCOCCO [3,6-dioxa-1-decanol] + CC(Cl)CCl
Conditions	excess molar enthalpy [kcal/mol]	mass density [kg/m3]
[3], x2 = 0.052	–	954.88
[3], x2 = 0.1	–	961.07
[3], x2 = 0.155	–	968.38
[3], x2 = 0.1997	–	974.56
[3], x2 = 0.2496	–	981.76
[3], x2 = 0.3037	–	989.93
[3], x2 = 0.3497	–	997.2
[3], x2 = 0.4033	–	1006.02
[3], x2 = 0.4504	–	1014.14
[3], x2 = 0.4998	–	1023.03
[3], x2 = 0.5535	–	1033.23
[3], x2 = 0.6001	–	1042.57
[3], x2 = 0.6494	–	1052.96
[3], x2 = 0.7024	–	1064.78
[3], x2 = 0.7527	–	1076.67
[3], x2 = 0.8024	–	1089.22
[3], x2 = 0.8488	–	1101.75
[3], x2 = 0.901	–	1116.84
[3], x2 = 0.9479	–	1131.48
[4], x2 = 0.066	-0.039	–
[4], x2 = 0.098	-0.0499	–
[4], x2 = 0.161	-0.0736	–
[4], x2 = 0.191	-0.086	–
[4], x2 = 0.248	-0.0983	–
[4], x2 = 0.303	-0.107	–
[4], x2 = 0.355	-0.1121	–
[4], x2 = 0.404	-0.113	–
[4], x2 = 0.45	-0.1104	–
[4], x2 = 0.495	-0.105	–
[4], x2 = 0.558	-0.0936	–
[4], x2 = 0.598	-0.0852	–
[4], x2 = 0.654	-0.0686	–
[4], x2 = 0.707	-0.0514	–
[4], x2 = 0.757	-0.0343	–
[4], x2 = 0.803	-0.0186	–
[4], x2 = 0.847	-0.00454	–
[4], x2 = 0.902	0.00837	–
[4], x2 = 0.953	0.00985	–

— the NIST ThermoML archive (doi:10.1016/j.fluid.2009.06.018)
